Experimental data as given in patent US20220349876A1, “USE OF DKK1 INHIBITOR IN PREVENTION AND/OR TREATMENT OF TUMOR CACHEXIA AND DISEASES ASSOCIATED WITH DIABETES” (SHANGHAI DONGTSU BIOSCIENCES CO., LTD., priority 2019, published 2022).
Entries after “also recorded” stand apart in the source; their conditions may differ.

How the values were obtained:
[1] = system: STZ-induced diabetic mice; assay: STZ-induced type 1 diabetes mouse model with insulin or MDC rescue; type: in vivo
Method: STZ-induced diabetes is a chemical modeling method for diabetes. Its full name is streptozotocin, which is a broad-spectrum antibiotic isolated from achromatic streptomycin. It can selectively damage islet 13 cells in a short period of time, causing 13 cell necrosis, resulting in varying degrees of blood insulin drop and blood sugar rise, resulting in insulin-dependent type 1 diabetes mellitus. […] Modelling criteria are non-fasting blood glucose values above 13.8 mM (250 mg/dl). The modeling steps are as follows: (4) According to the body weight, mice in the model group were injected intraperitoneally with 2% STZ-citric acid solution (160 mg/kg), and the mice in the control group were intraperitoneally injected with the corresponding volume of citrate buffer. 2 h after the injection, the mice were fed back. […] Specific steps are as follows: (3) According to the body weight, the insulin rescue group was subcutaneously injected with diluted insulin (1 U/kg/day), once a day at the same time for 7 consecutive days, and the control group was given a corresponding volume of normal saline. […] Body weight and random blood glucose were measured at different time points after injection. […] (1) Sample preparation: Store the freshly obtained mouse blood in an EDTA anticoagulation tube, stand at room temperature for 10 min, centrifuge at 1000 g for 15 min, and collect the supernatant, namely plasma. If it cannot be detected immediately, it should be subpackaged and stored at −80° C. to avoid repeated freezing. If precipitation occurs during storage, it should be fully thawed at room temperature before use, and centrifuged again.

HUVEC cells = assay: γH2AX DNA damage response in HUVEC cells (Western blot); type: cell-based
Method: (2) The transfection system of a 3.5 cm petri dish was prepared as follows: 1 μl of siRNA Oligo/Red (concentration of the original solution was 20 μM) was added to an EP tube containing 250 μl of pure Opti-MEM and mixed, and 1.5 μl of RNAiMAX (transfection Reagent) was added to the flow tube containing 250 μl of pure Opti-MEM and mixed, and then all the liquid in the EP tube was added to the flow tube and mixed, and allowed to stand at room temperature for 15 min.
(3) The prepared transfection system was added to a 3.5 cm culture dish, and the cells were cultured for 24-48 h, then the samples were collected and the total cell protein was extracted, and the knockdown effect of the gene was identified by Western Blotting.
(3) Add 150 μl of total protein lysate to each cell sample to make the lysate fully contact with the cells, scrape off the cell lysate with a scraper, collect it into a pre-cooled EP tube, and take an ice bath for 15 min.
(§1) Protein electrophoresis gels are double-layered gels, including an upper stacking gel and a lower separating gel. The concentration of the stacking gel is 5%, and the concentration of the separating gel is determined according to the molecular weight of the target protein. In this study, large molecular weight proteins (LRP5/6, β-catenin, β-arrestin1/2) used 8%-5% double-layer gel, and small molecular weight proteins (γH2AX, p53, p21, Bcl-2, Bax, Cleaved Caspase-3) used 12%-5% double-layer gel. In addition, the number of wells (10 wells or 15 wells) and thickness (1 mm or 1.5 mm) of the preparation gel were selected according to the number and volume of protein samples loaded. The gel formulation is shown in the experimental material section, and the preparation steps are as follows: […]

wild-type mice heart = assay: Local injection of Dkk1 protein into the heart combined with MDC or BIM-46187; type: in vivo, mouse
Method: In the experiment of local injection of Dkk1 purified protein into the heart combined with MDC intervention, 10-week-old wild-type male mice were selected, the left chest was depilated, and intraperitoneal injection of MDC (diluted in sterile PBS, 10 mg/kg) or the corresponding volume of DMSO (diluted in sterile PBS) and injected at the same time every day thereafter. After 1 h of MDC intervention, cardiac Dkk1 protein injection was performed. The mice were given continuous inhalation anesthesia with 1% isoflurane and oxygenated with a ventilator, and then the fourth intercostal space near the sternum was opened to expose the heart. Using a 200 μl microsyringe, Dkk1 (10 μg of Dkk1 per heart, dissolved in 30 μl PBS) or an equal volume of PBS was injected locally at three sites in the heart. Of these, two sites are on the border around the left ventricle, and one site enters the myocardium of the left ventricle. After the injection, the wound was sutured, the anesthesia was removed, and the mice were awake. After MDC was continuously intervened for 2 days, the mice were anesthetized and the materials were collected.
In addition to injecting Dkk1 protein alone into the heart, we also need to perform experiments of local injection of Dkk1 combined with BIM-46187 into mouse hearts. According to the experimental grouping, it was divided into cardiac injections of four different solutions, including PBS, Dkk1, BIM-46187, and a mixture of Dkk1 and BIM-46187. The dosage of Dkk1 per heart is 10 μg, and the dosage of BIM-46187 is 2.4 ng, diluted with 30 μl PBS and then injected into the heart. The specific operation steps are the same as above. After the injection, the wound was sutured, the anesthesia was removed, and the mice were awake. Two days after the injection, the mice were anesthetized and the materials were collected.

β-arrestin1/2 = β-arrestin1/2 translocation in HUVEC cells (Western blot); type: cell-based; conditions: BIM-46187 pretreatment 1 μM for 30 min
Method: (5) Add 100 μl (cell) or 200 μl (tissue) A solution to each sample, and resuspend the cell pellet with a pipette to completely disperse the pellet. The tissue pellet should be fully homogenized on ice with a homogenizer, and the ice bath should be used for 15 min.
(10) Add 50 μl (cells) or 100 μl (tissue) B solution to each sample, resuspend the pellet in Vortex at the highest speed for 10 s, ice bath for 10 min, and repeat twice to fully extract membrane proteins.
as §1

LRP6 and Kremen2 = assay: Intramuscular injection of Dkk1, Western blot of membrane LRP6 and Kremen2; type: in vivo, mouse; conditions: simultaneous injection with Dkk1
Method: Wild-type mice and β-arrestin2+/−KO mice were injected into the left quadriceps (0.25 mg/kg) and an equal volume of PBS was injected into the right leg as controls. MDC (10 mg/kg), IGFBP-4/H95P (1.7 mg/kg) or PBS were injected in combination with Dkk1 as a control to observe the effects of drugs on Dkk1-induced signal transduction. After 48 hours, the mice were sacrificed, and the left and right quadriceps were taken to measure the […].
Membrane proteins were extracted according to the instructions of Membrane Protein Extraction Kit (Sangon Biotech, China). Western blot analysis omitted. Antibodies for WB analysis were purchased from Cell Signaling Technology and Proteintech.

CT26 tumor-bearing mice = assay: Tumor cachexia in CT26 tumor-bearing mice: tumor-free body weight, muscle weight, muscle membrane proteins; type: in vivo, mouse

## insulin
[1]; STZ diabetic mice
  blood 8-OHdG (ELISA): greatly attenuated
  blood glucose concentration: reduces STZ-induced blood glucose elevation; also recorded: decreased from the first day of treatment and remained at a low level
  body weight loss of diabetic mice: promoted the gradual recovery of the weight loss; also recorded: suppressed
[1]; STZ diabetic mice, daily insulin
  blood Dkk1 (ELISA): brought high blood Dkk1 concentrations back to basal levels; also recorded: at the basal level
[1]; STZ diabetic mice, heart
  cardiac p53, p21, Bax/Bcl-2 and Cleaved Caspase-3: greatly attenuated
  cardiac γH2AX: decrease in γH2AX signaling
  damage to myocardial structure (HE staining): prevented
  translocation of cardiac β-arrestin1/2 in diabetic hearts: able to reverse this translocation
[1]; STZ diabetic mice, heart, Western blot
  LRP5/6 on the cardiac membrane: started to be up-regulated
[1]; substance alone (FIG. 19G)
  translocation of insulin receptors on the cardiac membrane or in the plasma: does not induce translocation of insulin receptors

## N[C@@H](CSSC[C@H](N)C(=O)N1CCn2cc(-c3ccccc3)nc2[C@@H]1CC1CCCCC1)C(=O)N1CCn2cc(-c3ccccc3)nc2[C@@H]1CC1CCCCC1 [BIM-46187]
HUVEC cells; BIM-46187 pretreatment 1 μM, 30 min
  Dkk1-induced γH2AX activation: inhibited
wild-type mice heart; Dkk1 intracardiac injection with MDC or BIM-46187
  Dkk1-induced cardiac β-arrestin1/2 translocation: inhibited; also recorded: significantly prevent Dkk1 direct endocytosis of LRP5/6-induced cardiac β-arrestin1/2 translocation changes
wild-type mice heart; Dkk1 intracardiac injection with MDC pretreatment or combined with BIM-46187
  Dkk1-induced cardiac changes (LRP5/6, γH2AX, p53, p21): effectively inhibit Dkk1-induced cardiac injury; also recorded: significantly prevent
β-arrestin1/2
  Dkk1-induced translocation of β-arrestin1/2: able to prevent Dkk1-induced translocation of β-arrestin1/2

B1: LRP6N: soluble protein of the extracellular segment of LRP6 (LRP6 ectodomain) (protein, UniProt O75581 20-1370, looked up)
extracellular domain: APLLLYANRRDLRLVDATNGKENATIVVGGLEDAAAVDFVFSHGLIYWSDVSEEAIKRTEFNKTESVQNVVVSGLLSPDGLACDWLGEKLYWTDSETNRIEVSNLDGSLRKVLFWQELDQPRAIALDPSSGFMYWTDWGEVPKIERAGMDGSSRFIIINSEIYWPNGLTLDYEEQKLYWADAKLNFIHKSNLDGTNRQAVVKGSLPHPFALTLFEDILYWTDWSTHSILACNKYTGEGLREIHSDIFSPMDIHAFSQQRQPNATNPCGIDNGGCSHLCLMSPVKPFYQCACPTGVKLLENGKTCKDGATELLLLARRTDLRRISLDTPDFTDIVLQLEDIRHAIAIDYDPVEGYIYWTDDEVRAIRRSFIDGSGSQFVVTAQIAHPDGIAVDWVARNLYWTDTGTDRIEVTRLNGTMRKILISEDLEEPRAIVLDPMVGYMYWTDWGEIPKIERAALDGSDRVVLVNTSLGWPNGLALDYDEGKIYWGDAKTDKIEVMNTDGTGRRVLVEDKIPHIFGFTLLGDYVYWTDWQRRSIERVHKRSAEREVIIDQLPDLMGLKATNVHRVIGSNPCAEENGGCSHLCLYRPQGLRCACPIGFELISDMKTCIVPEAFLLFSRRADIRRISLETNNNNVAIPLTGVKEASALDFDVTDNRIYWTDISLKTISRAFMNGSALEHVVEFGLDYPEGMAVDWLGKNLYWADTGTNRIEVSKLDGQHRQVLVWKDLDSPRALALDPAEGFMYWTEWGGKPKIDRAAMDGSERTTLVPNVGRANGLTIDYAKRRLYWTDLDTNLIESSNMLGLNREVIADDLPHPFGLTQYQDYIYWTDWSRRSIERANKTSGQNRTIIQGHLDYVMDILVFHSSRQSGWNECASSNGHCSHLCLAVPVGGFVCGCPAHYSLNADNRTCSAPTTFLLFSQKSAINRMVIDEQQSPDIILPIHSLRNVRAIDYDPLDKQLYWIDSRQNMIRKAQEDGSQGFTVVVSSVPSQNLEIQPYDLSIDIYSRYIYWTCEATNVINVTRLDGRSVGVVLKGEQDRPRAVVVNPEKGYMYFTNLQERSPKIERAALDGTEREVLFFSGLSKPIALALDSRLGKLFWADSDLRRIESSDLSGANRIVLEDSNILQPVGLTVFENWLYWIDKQQQMIEKIDMTGREGRTKVQARIAQLSDIHAVKELNLQEYRQHPCAQDNGGCSHICLVKGDGTTRCSCPMHLVLLQDELSCGEPPTCSPQQFTCFTGEIDCIPVAWRCDGFTECEDHSDELNCPVCSESQFQCASGQCIDGALRCNGDANCQDKSDEKNCEVLCLIDQFRCANGQCIGKHKKCDHNVDCSDKSDELDCYPTEEPAPQA
modifications: extracellular domain
HUVEC cells; Dkk1 then H2O2 50 μM
  γH2AX signaling enhanced by H2O2 in the presence of Dkk1: significantly attenuated
HUVEC cells; H2O2 50 μM
  H2O2-activated γH2AX signaling in control and β-catenin-knockdown cells: no effect
HUVEC cells; H2O2 50 μM, LRP6N pretreatment
  γH2AX signaling in MESD knockdown cells enhanced by H2O2: significantly attenuats this change
  γH2AX signaling of LRP5/6 knockdown cells further activated by H2O2: significantly attenuated
HUVEC cells; H2O2 50 μM, without Dkk1
  H2O2-induced γH2AX activation: does not prevent H2O2-induced γH2AX activation
HUVEC cells; LRP6N pre-added to culture medium
  γH2AX upregulation induced by knockdown of LRP5/6: reverses cellular DNA damage induced by knockdown of LRP5/6; also recorded: significantly attenuated
HUVEC cells; no Dkk1, no H2O2
  γH2AX response by the substance itself: does not elicit γH2AX responses
HUVEC cells; pretreatment with MDC or LRP6N protein
  Dkk1-induced γH2AX activation: inhibits Dkk1-induced γH2AX activation

B2: IGFBP4/H95P: recombinant mutant IGFBP4/H95P protein, which lost its IGF-binding ability, can bind to LRP6 on the membrane and prevent Dkk1 signaling (protein, UniProt P22692 22-258, looked up, variant H95P)
Insulin-like growth …: DEAIHCPPCSEEKLARCRPPVGCEELVREPGCGCCATCALGLGMPCGVYTPRCGSGLRCYPPRGVEKPLHTLMPGQGVCMELAEIEAIQESLQPSDKDEGDHPNNSFSPCSAHDRRCLQKHFAKIRDRSTSGGKMKVNGAPREDARPVPQGSCQSELHRALERLAASQSRTHEDLYIIPIPNCDRNGNFHPKQCHPALDGQRGKCWCVDRKTGVKLPGGLEPKGELDCHQLADSFRE
LRP6 and Kremen2
  Dkk1-induced endocytosis / downregulation of membrane LRP6 and Kremen2: inhibit downregulation of membrane LRP6 expression induced by Dkk1
CT26 tumor-bearing mice; listed as IGFBP4
  loss of body weight and muscle weight: reverse tumor-induced loss of tumor-free body weight and muscle atrophy
CT26 tumor-bearing mice; listed as IGFBP-4/H95P
  loss of body weight and muscle weight: completely prevents the decrease in body weight and muscle weight
